Values quoted from earlier work in patent US6765015B2, “Halogenated paclitaxel derivatives” (Xechem International, Inc., priority 1995, dated 2004).

Tested on: leukemic tumors
Details: in vivo

In the case of C/C=C(\C)C(=O)N[C@@H](c1ccccc1)[C@@H](O)C(=O)O[C@H]1C[C@@]2(O)[C@@H](OC(=O)c3ccccc3)[C@@H]3[C@]4(OC(C)=O)CO[C@@H]4C[C@H](O)[C@@]3(C)C(=O)[C@H](OC(C)=O)C(=C1C)C2(C)C [Cephalomannine, cephalomannine], the “remission of leukemic tumors” value is listed as “effective in causing remission of leukemic tumors”.
